Series [1] can be described thus: L929 cytotoxicity evaluation (resazurin). The format is cell-based. To be noted: mouse, L929 mouse fibroblast cells; 72 hrs incubation; read-out: Cytotox L-929 IC50. The procedure:
For evaluation of compound effects on mammalian cells, L929 mouse fibroblast cells were used. Cells were maintained as adherent cultures in T-25 vented cap flasks in a humidified incubator at 37° C. in the presence of 5% CO2. Culture media was D-MEM supplemented with 10% fetal bovine serum and 1% penicillin/streptomycin. L929 cells were maintained below confluent levels by sub-culturing at 1:10 dilution twice weekly using 0.05% trypsin for detachment.
Sub-confluent L929 cells were trypsinized, resuspended in fresh media and 10 uL was counted using hemocytometer to determine cell concentration. Cells were diluted to 1×10^4/mL in DMEM, dispensed (100 uL) into 96-well plates using a Multidrop 384 dispenser and allowed to attach overnight. Spent media was replaced with 99.5 uL fresh D-MEM and compounds to be tested were serially diluted in DMSO and 0.5 uL added using a Biomek NX liquid handler. Plates were incubated with compounds for 72 hrs at 37° C. with 5% CO2. Resazurin (20 uL of 12.5 mg/ml stock) from Sigma-Aldrich was added to each well and plates were incubated for an additional 3-4 hrs. Assay plates were read using an EnVision plate reader at an excitation wavelength of 544 nm and emission of 590 nm. Single data points were used to generate sigmoidal dose response curves and determine IC50 values using XLfit curve fitting software from IDBS (Guildford, UK).
On the technique in general: Resazurin is reduced to fluorescent resorufin, in cell work by metabolically active cells.

The test system of series [2] is bloodstream-form trypanosome T. brucei brucei 427 strain. Kind of series: Trypanosoma brucei brucei high-throughput in vitro drug sensitivity assay (resazurin). Format: cell-based. Conditions: for IC50: Trypanosoma brucei, 72 hrs incubation; for Selectivity Index (L929 IC50 / T. b. brucei IC50): T. b. brucei vs L929.

Data on 29 compounds can be found in patent US20110190235A1, “BORON-CONTAINING SMALL MOLECULES AS ANTIPROTOZOAL AGENTS” (Anacor Pharmaceuticals, Inc., priority 2009, published 2011).

Converted amounts (≈) assume the structure as drawn. Read-outs that look alike come from different tables or passages of the source.

Usually IC50 stands for the midpoint of a concentration-inhibition curve. Take `CC1(C)OB(O)c2cc(NC(=O)c3ccc(Cl)c(Cl)c3)ccc21` [compound 67, 3,4-Dichloro-N-(1-hydroxy-3,3-dimethyl-1,3-dihydro-benzo[c][1,2]oxaborol-6-yl)-benzamide]: the IC50 at 72 h in series [1] was more than 10 µg/mL. For the same compound, the IC50 in series [2] (read-out: T.b. brucei IC50) is more than 5 µg/mL.

Regarding `CC(C)=Cc1ccc(C(=O)Nc2ccc3c(c2)B(O)OC3(C)C)c(Cl)c1` [compound 99, 2-Chloro-N-(1-hydroxy-3,3-dimethyl-1,3-dihydro-benzo[c][1,2]oxaborol-6-yl)-4-(2-methyl-propenyl)-benzamide], the IC50 at 72 h in series [1] was 8.6 µg/mL (≈ 23.3 µM). Besides, in series [2] (read-out: T.b. brucei IC50), the IC50 worked out at 0.19 µg/mL.

On to `CC1(C)OB(O)c2cc(NC(=O)c3c(F)c(F)c(F)c(F)c3F)ccc21` [compound 110, 2,3,4,5,6-Pentafluoro-N-(1-hydroxy-3,3-dimethyl-1,3-dihydro-benzo[c][1,2]oxaborol-6-yl)-benzamide], for which the half-maximal inhibitory concentration (IC50) at 72 h in series [1] was more than 10 µg/mL. Also, in series [2] (read-out: T.b. brucei IC50), the IC50 was more than 5 µg/mL.

On to `CC1(C)OB(O)c2cc(NC(=O)c3c(F)cccc3C(F)(F)F)ccc21` [compound 86, 2-Fluoro-N-(1-hydroxy-3,3-dimethyl-1,3-dihydro-benzo[c][1,2]oxaborol-6-yl)-6-trifluoromethyl-benzamide], for which the IC50 at 72 h in series [1] is more than 10 µg/mL. The half-inhibitory concentration (IC50) in series [2] (read-out: T.b. brucei IC50) worked out at 0.425 µg/mL.

Consider `CC1(C)OB(O)c2cc(NC(=O)c3cccc4cccnc34)ccc21` [compound 113, Quinoline-8-carboxylic acid (1-hydroxy-3,3-dimethyl-1,3-dihydro-benzo[c][1,2]oxaborol-6-yl)-amide], for which, in series [1], the IC50 at 72 h was more than 10 µg/mL. For the same compound, the IC50 in series [2] (read-out: T.b. brucei IC50) was more than 5 µg/mL.

Regarding `COc1cc(C(=O)Nc2ccc3c(c2)B(O)OC3(C)C)cc(OC)c1OC` [compound 106, N-(1-Hydroxy-3,3-dimethyl-1,3-dihydro-benzo[c][1,2]oxaborol-6-yl)-3,4,5-trimethoxy-benzamide], in series [1], the IC50 at 72 h is more than 10 µg/mL. The IC50 in series [2] (read-out: T.b. brucei IC50) is more than 5 µg/mL.

As for `CC(C)CC1OB(O)c2cc(NC(=O)c3ccccc3C(F)(F)F)ccc21` (stereo not shown) [compound 22, N-(1-Hydroxy-3-isobutyl-1,3-dihydro-benzo[c][1,2]oxaborol-6-yl)-2-trifluoromethyl-benzamide], the half-inhibitory concentration (IC50) at 72 h in series [1] is more than 10 µg/mL. Further, the “Selectivity Index (L929 IC50 / T. b. brucei IC50)” value in series [2] is more than 12. Further, the figures for the IC50 in series [2] (read-out: T. b. brucei IC50) and in series [2] (read-out: T.b. brucei IC50) were 2300 nM and 0.866 µg/mL, respectively.

For `CC1(C)OB(O)c2cc(NC(=O)c3c(Cl)cc(Cl)cc3Cl)ccc21` [compound 105, 2,4,6-Trichloro-N-(1-hydroxy-3,3-dimethyl-1,3-dihydro-benzo[c][1,2]oxaborol-6-yl)-benzamide], in series [1], the IC50 at 72 h is more than 10 µg/mL. Besides, in series [2] (read-out: T.b. brucei IC50), the IC50 worked out at 0.788 µg/mL.

In the case of `Cc1ccc(Cl)c(C(=O)Nc2ccc3c(c2)B(O)OC3(C)C)c1F` [compound 108, 6-Chloro-2-fluoro-N-(1-hydroxy-3,3-dimethyl-1,3-dihydro-benzo[c][1,2]oxaborol-6-yl)-3-methyl-benzamide], the IC50 at 72 h in series [1] is more than 10 µg/mL. For the same compound, the IC50 in series [2] (read-out: T.b. brucei IC50) is 0.378 µg/mL.

Take `COc1ccccc1C(=O)Nc1ccc2c(c1)B(O)OC2(C)C` [compound 46, N-(1-Hydroxy-3,3-dimethyl-1,3-dihydro-benzo[c][1,2]oxaborol-6-yl)-2-methoxy-benzamide]: the 50% inhibitory concentration (IC50) at 72 h in series [1] was more than 10 µg/mL. In series [2] (read-out: T.b. brucei IC50), the IC50 came to 3.01 µg/mL.

For `CC1(C)OB(O)c2cc(NC(=O)c3ccncc3)ccc21` [compound 116, N-(1-Hydroxy-3,3-dimethyl-1,3-dihydro-benzo[c][1,2]oxaborol-6-yl)-isonicotinamide], the IC50 at 72 h in series [1] is more than 10 µg/mL. Moreover, the IC50 in series [2] (read-out: T.b. brucei IC50) was more than 5 µg/mL.

On to `COc1cccc(C(=O)Nc2ccc3c(c2)B(O)OC3C)c1` (stereo not shown) [compound 6, N-(1-Hydroxy-3-methyl-1,3-dihydro-benzo[c][1,2]oxaborol-6-yl)-3-methoxy-benzamide], for which, in series [1], the IC50 at 72 h was more than 10 µg/mL. Further, the “Selectivity Index (L929 IC50 / T. b. brucei IC50)” value in series [2] was more than 217. Further, the IC50 came out at 155 nM in series [2] (read-out: T. b. brucei IC50) and 0.046 µg/mL in series [2] (read-out: T.b. brucei IC50).

As to `CC1(C)OB(O)c2cc(NC(=O)c3ccccc3F)ccc21` [compound 37, 2-Fluoro-N-(1-hydroxy-3,3-dimethyl-1,3-dihydro-benzo[c][1,2]oxaborol-6-yl)-benzamide], in series [1], the IC50 at 72 h is more than 10 µg/mL. In series [2] (read-out: T.b. brucei IC50), the IC50 is 1.42 µg/mL.

Take `COc1cccc(OC)c1C(=O)Nc1ccc2c(c1)B(O)OC2(C)C` [compound 96, N-(1-Hydroxy-3,3-dimethyl-1,3-dihydro-benzo[c][1,2]oxaborol-6-yl)-2,6-dimethoxy-benzamide]: the IC50 at 72 h in series [1] was more than 10 µg/mL. For the same compound, the IC50 in series [2] (read-out: T.b. brucei IC50) came to 2.72 µg/mL.

In the case of `CC1(C)OB(O)c2cc(NC(=O)c3ccc(C(F)(F)F)cc3)ccc21` [compound 36, N-(1-Hydroxy-3,3-dimethyl-1,3-dihydro-benzo[c][1,2]oxaborol-6-yl)-4-trifluoromethyl-benzamide], the IC50 at 72 h in series [1] was more than 10 µg/mL. The IC50 in series [2] (read-out: T.b. brucei IC50) stood at 4.05 µg/mL.

`O=C(Nc1ccc2c(c1)B(O)OC2C1CCCC1)c1ccccc1Cl` (stereo not shown) [compound 18, 2-Chloro-N-(3-cyclopentyl-1-hydroxy-1,3-dihydro-benzo[c][1,2]oxaborol-6-yl)-benzamide]: the IC50 at 72 h in series [1] was 9.29 µg/mL (≈ 26.1 µM). The “Selectivity Index (L929 IC50 / T. b. brucei IC50)” value in series [2] is on record as 2. Further, the IC50 stood at 11900 nM in series [2] (read-out: T. b. brucei IC50) and 4.22 µg/mL in series [2] (read-out: T.b. brucei IC50).

Turning to `CC1(C)OB(O)c2cc(NC(=O)c3cnccn3)ccc21` [compound 119, Pyrazine-2-carboxylic acid (1-hydroxy-3,3-dimethyl-1,3-dihydro-benzo[c][1,2]oxaborol-6-yl)-amide], the IC50 at 72 h in series [1] is more than 10 µg/mL. Besides, in series [2] (read-out: T.b. brucei IC50), the IC50 is more than 5 µg/mL.

`CC1(C)OB(O)c2cc(NC(=O)c3cccc(OC(F)(F)F)c3)ccc21` [compound 52, N-(1-Hydroxy-3,3-dimethyl-1,3-dihydro-benzo[c][1,2]oxaborol-6-yl)-3-trifluoromethoxy-benzamide]: the IC50 at 72 h in series [1] was more than 10 µg/mL. The IC50 in series [2] (read-out: T.b. brucei IC50) stood at 2.27 µg/mL.

As to `CCOc1ccccc1C(=O)Nc1ccc2c(c1)B(O)OC2(C)C` [compound 49, 2-Ethoxy-N-(1-hydroxy-3,3-dimethyl-1,3-dihydro-benzo[c][1,2]oxaborol-6-yl)-benzamide], in series [1], the IC50 at 72 h is more than 10 µg/mL. Moreover, the IC50 in series [2] (read-out: T.b. brucei IC50) was more than 5 µg/mL.

Take `CC1(C)OB(O)c2cc(NC(=O)c3cc(C(F)(F)F)ccc3C(F)(F)F)ccc21` [compound 81, N-(1-Hydroxy-3,3-dimethyl-1,3-dihydro-benzo[c][1,2]oxaborol-6-yl)-2,5-bis-trifluoromethyl-benzamide]: the IC50 at 72 h in series [1] is more than 10 µg/mL. The IC50 in series [2] (read-out: T.b. brucei IC50) was 0.183 µg/mL.

For `Cc1cccc(C(=O)Nc2ccc3c(c2)B(O)OC3(C)C)c1` [compound 28, N-(1-Hydroxy-3,3-dimethyl-1,3-dihydro-benzo[c][1,2]oxaborol-6-yl)-3-methyl-benzamide], the IC50 at 72 h in series [1] is more than 10 µg/mL. For the same compound, the IC50 in series [2] (read-out: T.b. brucei IC50) came out at 3.17 µg/mL.

In the case of `CC1(C)OB(O)c2cc(NC(=O)C3CCCC3)ccc21` [compound 128, Cyclopentanecarboxylic acid (1-hydroxy-3,3-dimethyl-1,3-dihydro-benzo[c][1,2]oxaborol-6-yl)-amide], the IC50 at 72 h in series [1] is more than 10 µg/mL. The IC50 in series [2] (read-out: T.b. brucei IC50) is more than 5 µg/mL.

Take `Cc1ccc(C(=O)Nc2ccc3c(c2)B(O)OC3(C)C)c(Cl)n1` [compound 118]: the IC50 at 72 h in series [1] was more than 10 µg/mL. Further, in series [2] (read-out: T.b. brucei IC50), the IC50 was 0.814 µg/mL.

With `CC1(C)OB(O)c2cc(NC(=O)c3cccs3)ccc21` [compound 124, Thiophene-2-carboxylic acid (1-hydroxy-3,3-dimethyl-1,3-dihydro-benzo[c][1,2]oxaborol-6-yl)-amide], in series [1], the IC50 at 72 h is more than 10 µg/mL. For the same compound, in series [2] (read-out: T.b. brucei IC50), the IC50 was determined as 2.7 µg/mL.

Take `C=CCc1ccc(C(=O)Nc2ccc3c(c2)B(O)OC3(C)C)c(Cl)c1` [compound 98, 4-Allyl-2-chloro-N-(1-hydroxy-3,3-dimethyl-1,3-dihydro-benzo[c][1,2]oxaborol-6-yl)-benzamide]: in series [1], the IC50 at 72 h is more than 10 µg/mL. Besides, in series [2] (read-out: T.b. brucei IC50), the IC50 amounted to 0.091 µg/mL.

On to `CC1(C)OB(O)c2cc(NC(=O)Cc3cccs3)ccc21` [compound 125, N-(1-Hydroxy-3,3-dimethyl-1,3-dihydro-benzo[c][1,2]oxaborol-6-yl)-2-thiophen-2-yl-acetamide], for which the IC50 at 72 h in series [1] was more than 10 µg/mL. Also, the IC50 in series [2] (read-out: T.b. brucei IC50) was more than 5 µg/mL.

In the case of `CCC(C)(C)C(=O)Nc1ccc2c(c1)B(O)OC2(C)C` [compound 132, N-(1-Hydroxy-3,3-dimethyl-1,3-dihydro-benzo[c][1,2]oxaborol-6-yl)-2,2-dimethyl-butyramide], in series [1], the IC50 at 72 h is more than 10 µg/mL. For the same compound, in series [2] (read-out: T.b. brucei IC50), the IC50 came to 3.81 µg/mL.

As to `CC1(C)OB(O)c2cc(NC(=O)c3cc(F)ccc3C(F)(F)F)ccc21` [compound 88, 5-Fluoro-N-(1-hydroxy-3,3-dimethyl-1,3-dihydro-benzo[c][1,2]oxaborol-6-yl)-2-trifluoromethyl-benzamide], in series [1], the IC50 at 72 h is more than 10 µg/mL. Besides, the IC50 in series [2] (read-out: T.b. brucei IC50) was determined as 0.313 µg/mL.

For the compound `CC1(C)OB(O)c2cc(NC(=O)c3ccccc3[N+](=O)[O-])ccc21` [compound 55, N-(1-Hydroxy-3,3-dimethyl-1,3-dihydro-benzo[c][1,2]oxaborol-6-yl)-2-nitro-benzamide], the IC50 at 72 h in series [1] is more than 10 µg/mL. The IC50 in series [2] (read-out: T.b. brucei IC50) was found to be 0.122 µg/mL.
